Each molecule was assayed against T1, Adenosine receptor A3 (Homo sapiens, UniProt P0DMS8) (assay: Displacement of [125I][…] from human adenosine A3 receptor expressed in CHO cells).
T1 sequence (P0DMS8 whole entry): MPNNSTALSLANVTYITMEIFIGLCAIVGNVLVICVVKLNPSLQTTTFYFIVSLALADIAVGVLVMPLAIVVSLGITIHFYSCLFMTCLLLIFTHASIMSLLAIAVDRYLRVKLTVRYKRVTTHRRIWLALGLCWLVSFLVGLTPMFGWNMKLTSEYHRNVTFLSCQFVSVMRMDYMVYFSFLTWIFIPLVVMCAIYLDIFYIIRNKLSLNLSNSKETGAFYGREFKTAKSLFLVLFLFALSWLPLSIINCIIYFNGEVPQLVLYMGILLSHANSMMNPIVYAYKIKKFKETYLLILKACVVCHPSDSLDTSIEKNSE
Type: cell-based

First: CNc1nc(Cl)nc2c1ncn2[C@@H]1O[C@H](C(=O)NCc2cccc(F)c2)[C@@H](O)[C@H]1O
Second: CNc1nc(Cl)nc2c1ncn2[C@@H]1O[C@H](C(=O)NCCc2cccc(F)c2)[C@@H](O)[C@H]1O
The Ki of the first is 4.9-fold lower: 17.4 nM for the first, 85.1 nM for the second. The first binds more tightly here.

Compared with `Cc1ccccc1CNc1nc(Cl)nc2c1ncn2[C@@H]1O[C@H](C(=O)N2CCC(Cc3ccccc3)CC2)[C@@H](O)[C@H]1O`, `CNc1nc(Cl)nc2c1ncn2[C@@H]1O[C@H](C(=O)N2CCC(Cc3ccccc3)CC2)[C@@H](O)[C@H]1O` is 14-fold lower in Ki: 49000 nM for the first, 3470 nM for the second. The second binds more tightly here.

`O=C(NCCC(c1ccccc1)c1ccccc1)[C@H]1O[C@@H](n2cnc3c(NCc4cccc(I)c4)nc(Cl)nc32)[C@H](O)[C@@H]1O` and `CNc1nc(Cl)nc2c1ncn2[C@@H]1O[C@H](C(=O)NCCC(c2ccccc2)c2ccccc2)[C@@H](O)[C@H]1O` are within 1.5-fold of each other in Ki: 347 nM for the first, 417 nM for the second.

Compared with `O=C([C@H]1S[C@@H](n2cnc3c(NCc4cccc(I)c4)nc(Cl)nc32)[C@H](O)[C@@H]1O)N1CCC(Cc2ccccc2)CC1`, `O=C([C@H]1S[C@@H](n2cnc3c(NCc4cccc(I)c4)nc(Cl)nc32)[C@H](O)[C@@H]1O)N1CCOCC1` is 1.7-fold lower in Ki: 871 nM for the first, 513 nM for the second.

`O=C(NCCc1ccccc1)[C@H]1O[C@@H](n2cnc3c(NCc4cccc(I)c4)nc(Cl)nc32)[C@H](O)[C@@H]1O` and `O=C(NCc1cccc(Cl)c1)[C@H]1O[C@@H](n2cnc3c(NCc4cccc(I)c4)nc(Cl)nc32)[C@H](O)[C@@H]1O` are within 1.5-fold of each other in Ki: 437 nM for the first, 309 nM for the second.

`CCNC(=O)[C@H]1O[C@@H](n2cnc3c(NCc4ccccc4C)nc(Cl)nc32)[C@H](O)[C@@H]1O` and `CNC(=O)[C@H]1O[C@@H](n2cnc3c(NCc4ccccc4C)nc(Cl)nc32)[C@H](O)[C@@H]1O` are within 1.5-fold of each other in Ki: 2.51 nM for the first, 2.19 nM for the second.

`Cc1ccccc1CNc1nc(Cl)nc2c1ncn2[C@@H]1O[C@H](C(=O)NC2CC2)[C@@H](O)[C@H]1O` and `Cc1ccccc1CNc1nc(Cl)nc2c1ncn2[C@@H]1O[C@H](C(=O)NCC2CC2)[C@@H](O)[C@H]1O` are within 1.5-fold of each other in Ki: 27.5 nM for the first, 29.5 nM for the second.

Compared with `O=C(NC1CCC1)[C@H]1S[C@@H](n2cnc3c(NCc4cccc(I)c4)nc(Cl)nc32)[C@H](O)[C@@H]1O`, `O=C(NC1CC1)[C@H]1S[C@@H](n2cnc3c(NCc4cccc(I)c4)nc(Cl)nc32)[C@H](O)[C@@H]1O` is 6.2-fold lower in Ki: 18.2 nM for the first, 2.95 nM for the second.

First: Cc1ccccc1CNc1nc(Cl)nc2c1ncn2[C@@H]1O[C@H](C(=O)N2CCOCC2)[C@@H](O)[C@H]1O
Second: CNc1nc(Cl)nc2c1ncn2[C@@H]1O[C@H](C(=O)N2CCOCC2)[C@@H](O)[C@H]1O
The Ki of the first is 2-fold higher: 7590 nM for the first, 3890 nM for the second.

Compared with `CNc1nc(Cl)nc2c1ncn2[C@@H]1O[C@H](C(=O)N(C)C)[C@@H](O)[C@H]1O`, `CNc1nc(Cl)nc2c1ncn2[C@@H]1O[C@H](C(=O)NC2CC2)[C@@H](O)[C@H]1O` is 540-fold lower in Ki: 1510 nM for the first, 2.82 nM for the second.

Compared with `CNc1nc(Cl)nc2c1ncn2[C@@H]1O[C@H](C(=O)N2CCN(c3ccc(F)cc3)CC2)[C@@H](O)[C@H]1O`, `O=C([C@H]1O[C@@H](n2cnc3c(NCc4cccc(I)c4)nc(Cl)nc32)[C@H](O)[C@@H]1O)N1CCN(c2ccc(F)cc2)CC1` is 1.9-fold lower in Ki: 2690 nM for the first, 1450 nM for the second. The second binds more tightly here.

First: CNC(=O)[C@H]1O[C@@H](n2cnc3c(N)nc(Cl)nc32)[C@H](O)[C@@H]1O
Second: CNC(=O)[C@H]1O[C@@H](n2cnc3c(NC4CC4)nc(Cl)nc32)[C@H](O)[C@@H]1O
The Ki of the first is 5.6-fold lower: 0.398 nM for the first, 2.24 nM for the second. The first binds more tightly here.

Going from `CNc1nc(Cl)nc2c1ncn2[C@@H]1O[C@H](C(=O)NCC2CC2)[C@@H](O)[C@H]1O` to `CCNC(=O)[C@H]1O[C@@H](n2cnc3c(NC4CC4)nc(Cl)nc32)[C@H](O)[C@@H]1O`, the Ki falls from 1.1 nM to 0.676 nM (1.6-fold).

First: CNc1nc(Cl)nc2c1ncn2[C@@H]1O[C@H](C(=O)NCCC(C)C)[C@@H](O)[C@H]1O
Second: CC(C)CCNC(=O)[C@H]1O[C@@H](n2cnc3c(NCc4cccc(I)c4)nc(Cl)nc32)[C@H](O)[C@@H]1O
The Ki of the first is 26-fold lower: 1.62 nM for the first, 41.7 nM for the second. The first binds more tightly here.

Going from `CCNC(=O)[C@H]1S[C@@H](n2cnc3c(NCc4cccc(I)c4)nc(Cl)nc32)[C@H](O)[C@@H]1O` to `O=C(NCC1CC1)[C@H]1S[C@@H](n2cnc3c(NCc4cccc(I)c4)nc(Cl)nc32)[C@H](O)[C@@H]1O`, the Ki rises from 0.891 nM to 3.63 nM (4.1-fold). The first binds more tightly here.

`O=C(NC1CC1)[C@H]1S[C@@H](n2cnc3c(NC4CC4)nc(Cl)nc32)[C@H](O)[C@@H]1O` and `CNC(=O)[C@H]1S[C@@H](n2cnc3c(NC4CCCC4)nc(Cl)nc32)[C@H](O)[C@@H]1O` are within 1.5-fold of each other in Ki: 5.62 nM for the first, 4.27 nM for the second.

`O=C([C@H]1O[C@@H](n2cnc3c(NC4CC4)nc(Cl)nc32)[C@H](O)[C@@H]1O)N1CCC(Cc2ccccc2)CC1` and `O=C([C@H]1O[C@@H](n2cnc3c(NC4CC4)nc(Cl)nc32)[C@H](O)[C@@H]1O)N1CCOCC1` are within 1.5-fold of each other in Ki: 3980 nM for the first, 4470 nM for the second.

First: O=C(NCc1cccc(C(F)(F)F)c1)[C@H]1O[C@@H](n2cnc3c(NCc4cccc(I)c4)nc(Cl)nc32)[C@H](O)[C@@H]1O
Second: Cc1ccccc1CNc1nc(Cl)nc2c1ncn2[C@@H]1O[C@H](C(=O)N(C)C)[C@@H](O)[C@H]1O
The Ki of the first is 1.8-fold lower: 355 nM for the first, 631 nM for the second.

Source: ChEMBL document CHEMBL1137718, “Topological descriptors in modeling the agonistic activity of human A3 adenosine receptor ligands: the derivatives of 2-chloro-N(6)-substituted-4'-thioadenosine-5'-uronamide” (Eur J Med Chem, 2009)
